# Experimental data taken from ChEMBL document CHEMBL1146709, “Tetrahydroisoquinoline based sulfonamide hydroxamates as potent matrix metalloproteinase inhibitors” (Bioorg Med Chem Lett, 2004).
# Experiments:
# [1] = molecular target: 72 kDa type IV collagenase (Homo sapiens, UniProt P08253); assay: Inhibition of matrix metalloprotease-2 (MMP-2)
# [2] = molecular target: Matrix metalloproteinase-9 (Homo sapiens, UniProt P14780); assay: Inhibition of matrix metalloprotease-9 (MMP-9)
# [3] = molecular target: T1, Matrix metalloproteinase-26 (Homo sapiens, UniProt Q9NRE1); assay: Inhibition of matrix metalloprotease-26 (MMP-26)
# T1 sequence (Q9NRE1 whole entry): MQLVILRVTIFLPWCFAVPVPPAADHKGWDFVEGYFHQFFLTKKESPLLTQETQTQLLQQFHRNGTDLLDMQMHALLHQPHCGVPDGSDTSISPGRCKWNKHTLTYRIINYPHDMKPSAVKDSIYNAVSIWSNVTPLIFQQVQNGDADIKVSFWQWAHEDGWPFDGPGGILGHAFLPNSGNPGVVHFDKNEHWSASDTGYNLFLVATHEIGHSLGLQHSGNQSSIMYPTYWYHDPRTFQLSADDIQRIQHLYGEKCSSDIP
# [4] = molecular target: Matrix metalloproteinase-15 (Homo sapiens, UniProt P51511); assay: Inhibition of matrix metalloprotease-15 (MMP-15)
# [5] = molecular target: Matrix metalloproteinase-16 (Homo sapiens, UniProt P51512); assay: Inhibition of matrix metalloprotease-16 (MMP-16)
# [6] = molecular target: Macrophage metalloelastase (Homo sapiens, UniProt P39900); assay: Inhibition of matrix metalloprotease-12 (MMP-12)
# Matrilysin [7] = molecular target: T2, Matrilysin (Homo sapiens, UniProt P09237)
# T2 sequence (P09237 whole entry): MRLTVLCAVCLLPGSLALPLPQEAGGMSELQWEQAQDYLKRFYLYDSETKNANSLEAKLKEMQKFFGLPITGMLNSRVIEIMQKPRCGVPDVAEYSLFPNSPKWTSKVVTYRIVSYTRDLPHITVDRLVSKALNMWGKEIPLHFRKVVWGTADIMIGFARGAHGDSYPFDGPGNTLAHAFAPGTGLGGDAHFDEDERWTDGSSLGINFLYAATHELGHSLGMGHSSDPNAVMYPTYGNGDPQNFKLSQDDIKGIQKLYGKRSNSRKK
# [8] = molecular target: Matrix metalloproteinase-14 (Homo sapiens, UniProt P50281); assay: Inhibition of matrix metalloprotease-14 (MMP-14)
# Interstitial collagenase [9] = molecular target: T3, Interstitial collagenase (Homo sapiens, UniProt P03956); assay: Inhibition of matrix metalloprotease-1 (MMP-1)
# T3 sequence (P03956 whole entry): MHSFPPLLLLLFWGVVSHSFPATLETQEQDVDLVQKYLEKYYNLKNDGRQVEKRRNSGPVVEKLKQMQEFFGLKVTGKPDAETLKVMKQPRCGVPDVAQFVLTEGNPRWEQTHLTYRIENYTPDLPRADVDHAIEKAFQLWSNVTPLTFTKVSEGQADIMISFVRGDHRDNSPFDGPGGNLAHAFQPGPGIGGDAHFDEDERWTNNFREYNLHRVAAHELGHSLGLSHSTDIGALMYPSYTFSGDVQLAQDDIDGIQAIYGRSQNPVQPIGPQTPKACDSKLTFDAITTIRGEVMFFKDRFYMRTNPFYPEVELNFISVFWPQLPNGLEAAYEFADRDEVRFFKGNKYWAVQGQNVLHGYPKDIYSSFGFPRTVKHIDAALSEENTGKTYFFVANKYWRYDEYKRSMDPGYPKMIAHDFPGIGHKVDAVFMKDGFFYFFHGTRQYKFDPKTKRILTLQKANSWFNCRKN
# Matrilysin [10] = molecular target: T2, Matrilysin; assay: Inhibition of matrix metalloprotease-7 (MMP-7)
# [11] = molecular target: T1, Matrix metalloproteinase-26; assay: Inhibition of matrix metalloprotease-26 (MMP-26) (inactive up to 50 uM)
# Interstitial collagenase [12] = molecular target: T3, Interstitial collagenase
# Matrix metalloproteinase-16, sequence (P51512 whole entry): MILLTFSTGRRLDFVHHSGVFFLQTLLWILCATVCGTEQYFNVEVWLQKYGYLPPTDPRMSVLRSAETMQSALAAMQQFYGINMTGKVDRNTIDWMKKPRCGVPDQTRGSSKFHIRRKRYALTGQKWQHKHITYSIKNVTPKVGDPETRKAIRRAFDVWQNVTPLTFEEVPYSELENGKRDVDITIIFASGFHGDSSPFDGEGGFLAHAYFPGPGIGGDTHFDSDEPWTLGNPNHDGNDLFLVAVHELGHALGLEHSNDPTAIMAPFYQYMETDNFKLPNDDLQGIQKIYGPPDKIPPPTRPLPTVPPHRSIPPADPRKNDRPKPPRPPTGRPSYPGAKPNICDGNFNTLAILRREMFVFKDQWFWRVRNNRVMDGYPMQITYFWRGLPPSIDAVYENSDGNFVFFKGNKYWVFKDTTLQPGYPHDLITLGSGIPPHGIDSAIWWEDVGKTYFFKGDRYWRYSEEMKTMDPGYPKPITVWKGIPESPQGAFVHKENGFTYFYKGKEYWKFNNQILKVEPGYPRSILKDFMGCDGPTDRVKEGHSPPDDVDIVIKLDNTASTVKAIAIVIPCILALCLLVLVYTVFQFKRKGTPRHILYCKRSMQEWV
# 72 kDa type IV collagenase, sequence (P08253 whole entry): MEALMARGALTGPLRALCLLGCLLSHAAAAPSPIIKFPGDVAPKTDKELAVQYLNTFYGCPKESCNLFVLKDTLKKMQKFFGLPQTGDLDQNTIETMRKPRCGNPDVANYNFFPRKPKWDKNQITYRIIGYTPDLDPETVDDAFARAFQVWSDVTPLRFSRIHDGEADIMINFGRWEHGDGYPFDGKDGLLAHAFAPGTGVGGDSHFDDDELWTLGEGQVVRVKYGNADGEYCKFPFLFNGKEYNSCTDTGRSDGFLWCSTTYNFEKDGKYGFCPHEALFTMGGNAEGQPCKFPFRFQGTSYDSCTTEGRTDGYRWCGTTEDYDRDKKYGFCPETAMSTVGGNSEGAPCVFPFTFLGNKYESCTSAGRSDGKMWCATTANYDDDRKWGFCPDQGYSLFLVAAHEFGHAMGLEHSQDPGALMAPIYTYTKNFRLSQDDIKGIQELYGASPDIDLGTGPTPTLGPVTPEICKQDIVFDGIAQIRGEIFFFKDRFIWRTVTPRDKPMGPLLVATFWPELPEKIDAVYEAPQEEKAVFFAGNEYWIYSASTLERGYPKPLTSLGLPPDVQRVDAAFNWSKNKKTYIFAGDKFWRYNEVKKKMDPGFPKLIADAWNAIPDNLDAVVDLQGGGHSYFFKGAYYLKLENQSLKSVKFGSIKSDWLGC
# Matrix metalloproteinase-15, sequence (P51511 whole entry): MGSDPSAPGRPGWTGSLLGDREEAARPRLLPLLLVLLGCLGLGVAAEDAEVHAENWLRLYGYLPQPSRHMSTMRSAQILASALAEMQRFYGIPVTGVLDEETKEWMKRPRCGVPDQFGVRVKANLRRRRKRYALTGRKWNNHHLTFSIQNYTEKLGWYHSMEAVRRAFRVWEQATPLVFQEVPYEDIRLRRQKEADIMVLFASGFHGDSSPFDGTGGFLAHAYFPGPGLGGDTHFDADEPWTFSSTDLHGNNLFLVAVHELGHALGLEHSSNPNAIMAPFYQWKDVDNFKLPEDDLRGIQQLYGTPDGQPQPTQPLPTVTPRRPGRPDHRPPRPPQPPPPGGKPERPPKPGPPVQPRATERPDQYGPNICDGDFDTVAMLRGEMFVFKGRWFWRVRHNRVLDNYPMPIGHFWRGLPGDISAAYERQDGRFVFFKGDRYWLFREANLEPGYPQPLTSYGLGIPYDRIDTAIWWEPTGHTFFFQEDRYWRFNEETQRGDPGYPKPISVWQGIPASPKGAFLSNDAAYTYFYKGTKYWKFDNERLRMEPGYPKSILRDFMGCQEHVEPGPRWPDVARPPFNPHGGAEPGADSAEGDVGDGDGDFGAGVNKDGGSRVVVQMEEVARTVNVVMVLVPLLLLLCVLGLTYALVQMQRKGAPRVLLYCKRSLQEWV
# Macrophage metalloelastase, sequence (P39900 whole entry): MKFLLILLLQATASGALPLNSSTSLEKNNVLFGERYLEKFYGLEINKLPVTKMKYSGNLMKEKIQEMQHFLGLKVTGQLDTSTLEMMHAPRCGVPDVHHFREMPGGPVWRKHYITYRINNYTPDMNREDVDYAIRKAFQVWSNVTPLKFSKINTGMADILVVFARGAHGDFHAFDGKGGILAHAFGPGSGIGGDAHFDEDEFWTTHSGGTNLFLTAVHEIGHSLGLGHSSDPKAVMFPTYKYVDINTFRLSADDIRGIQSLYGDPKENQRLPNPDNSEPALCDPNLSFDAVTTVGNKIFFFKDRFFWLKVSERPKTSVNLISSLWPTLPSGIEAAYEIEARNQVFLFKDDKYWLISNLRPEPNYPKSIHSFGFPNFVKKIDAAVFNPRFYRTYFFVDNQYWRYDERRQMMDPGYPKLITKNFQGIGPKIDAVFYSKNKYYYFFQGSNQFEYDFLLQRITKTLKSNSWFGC
# Matrix metalloproteinase-9, sequence (P14780 whole entry): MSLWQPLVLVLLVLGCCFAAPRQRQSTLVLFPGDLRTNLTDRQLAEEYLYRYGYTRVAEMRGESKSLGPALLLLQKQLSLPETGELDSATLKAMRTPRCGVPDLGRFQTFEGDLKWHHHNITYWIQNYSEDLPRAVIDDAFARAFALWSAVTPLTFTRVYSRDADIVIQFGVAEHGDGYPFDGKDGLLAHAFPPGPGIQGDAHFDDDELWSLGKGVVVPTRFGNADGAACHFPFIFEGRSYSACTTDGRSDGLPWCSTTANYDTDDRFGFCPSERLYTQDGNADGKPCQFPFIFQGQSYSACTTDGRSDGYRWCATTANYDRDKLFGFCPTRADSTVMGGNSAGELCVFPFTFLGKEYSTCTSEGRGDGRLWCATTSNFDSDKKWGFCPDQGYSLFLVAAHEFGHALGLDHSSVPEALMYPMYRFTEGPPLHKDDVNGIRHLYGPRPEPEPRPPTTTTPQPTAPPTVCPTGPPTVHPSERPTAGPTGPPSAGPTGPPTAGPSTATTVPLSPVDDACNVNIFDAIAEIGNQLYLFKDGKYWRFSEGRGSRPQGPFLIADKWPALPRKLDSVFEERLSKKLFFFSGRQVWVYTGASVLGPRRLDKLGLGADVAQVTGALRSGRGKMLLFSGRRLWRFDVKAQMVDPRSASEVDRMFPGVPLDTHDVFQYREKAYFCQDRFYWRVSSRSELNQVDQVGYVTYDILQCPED
IC50 (Matrilysin [7]),IC50 [11],Structure (SMILES),IC50 [1] [nM],IC50 [2] [nM],IC50 [3] [nM],IC50 [4] [nM],IC50 [5] [nM],IC50 [6] [nM],IC50 [8] [nM],IC50 (Interstitial collagenase [9]) [nM],IC50 (Matrilysin [10]) [nM],IC50 (Interstitial collagenase [12])
Not Active,,O=C(NO)C1c2ccc(O)cc2CCN1S(=O)(=O)c1ccccc1 (configuration not stated),430,335,858,218,184,421,1100,6320,,
,,Cc1ccc(S(=O)(=O)N2CCc3cc(OCc4ccccc4)ccc3C2C(=O)NO)cc1 (configuration not stated),33,130,2050,44,56,72,62,462,12000,
,,O=C(NO)C1c2ccc(O)cc2CCN1S(=O)(=O)c1ccc([N+](=O)[O-])cc1 (configuration not stated),76,258,791,126,177,59,521,41,21400,
Not Active,Not Active,O=C(NO)C1c2ccc(OCc3ccccc3)cc2CCN1S(=O)(=O)c1cc(Cl)ccc1Cl (configuration not stated),1100,3120,,7300,4630,931,20800,,,Not Active
,,O=C(NO)C1c2ccc(OCc3ccccc3)cc2CCN1S(=O)(=O)c1ccccc1 (configuration not stated),24,35,1450,17,35,57,39,452,7140,
,,Cc1ccc(S(=O)(=O)N2CCc3cc(O)ccc3C2C(=O)NO)cc1 (configuration not stated),18,40,97,19,21,29,52,152,10500,
,,COc1cc2c(cc1O)CCN(S(=O)(=O)c1ccccc1)C2C(=O)NO (configuration not stated),27,100,146,29,40,65,867,595,10700,
,,COc1ccc(S(=O)(=O)N2CCc3cc(O)c(OC)cc3C2C(=O)NO)cc1 (configuration not stated),26,46,86,6,16,20,68,123,3190,
Not Active,,Nc1ccc(S(=O)(=O)N2CCc3cc(O)ccc3C2C(=O)NO)cc1 (configuration not stated),150,248,492,385,202,191,835,13200,,
Not Active,,COc1ccc(S(=O)(=O)N2CCc3cc(O)ccc3C2C(=O)NO)cc1 (configuration not stated),724,4100,7510,621,1680,7690,3110,15000,,
,,COc1ccc(S(=O)(=O)N2CCc3cc(OCc4ccccc4)ccc3C2C(=O)NO)cc1 (configuration not stated),16,30,744,4,22,57,34,88,2420,
,,O=C(NO)C1c2ccc(O)cc2CCN1S(=O)(=O)c1cc(Cl)ccc1Cl (configuration not stated),853,1880,7900,1790,1840,170,4610,,21400,Not Active
,,CNC(=O)[C@H](Cc1c[nH]c2ccccc12)NC(=O)[C@@H](CC(=O)NO)CC(C)C [ILOMASTAT],,,17,,8,13,23,,,
